Legend:
Assay type in all cases: biochemical
p110α Type Ia human PI3K = target: T1, p110α Type Ia human PI3K (Homo sapiens, UniProt P42336); experiment: In Vitro PI3K Enzyme Assay (AlphaScreen), Test (b)(i), p110α; settings: read-out: IC50 versus p110α Type Ia human PI3K
T1 construct: full length DNA of each of the p110α, p110β and p110δ Type Ia human PI3K p110 isoforms; 6-His; made in house
Excerpt: (b)(i) In Vitro PI3K Enzyme Assay
The assay used AlphaScreen technology (Gray et al., Analytical Biochemistry, 2003, 313: 234-245) to determine the ability of test compounds to inhibit phosphorylation by recombinant Type I PI3K enzymes of the lipid PI(4,5)P2.
DNA fragments encoding human PI3K catalytic and regulatory subunits were isolated from cDNA libraries using standard molecular biology and PCR cloning techniques. The selected DNA fragments were used to generate baculovirus expression vectors. In particular, full length DNA of each of the p110α, p110β and p110δ Type Ia human PI3K p110 isoforms (EMBL Accession Nos. HSU79143, S67334, Y10055 for p110α, p110β and p110δ respectively) were sub-cloned into a pDEST10 vector (Invitrogen Limited, Fountain Drive, Paisley, UK). The vector is a Gateway-adapted version of Fastbac1 containing a 6-His epitope tag. […]
Biotinylated-DiC8-PI(3,4,5)P3 (50 nM; Cell Signals Inc., Catalogue No. 107), recombinant purified GST-Grp1 PH protein (2.5 nM) and AlphaScreen Anti-GST donor and acceptor beads (100 ng; Packard Bioscience Limited, Station Road, Pangbourne, Berkshire, UK, Catalogue No. 6760603M) were added and the assay plates were left for about 5 to 20 hours at room temperature in the dark. The resultant signals arising from laser light excitation at 680 nm were read using a Packard AlphaQuest instrument. […]

mTOR [1] = target: T2, mTOR (Homo sapiens, UniProt P42345); experiment: In Vitro mTOR Kinase Assay (Echo), Test (a)(ii)
T2 construct: FLAG; made in house
T2 sequence (P42345 1362-2549): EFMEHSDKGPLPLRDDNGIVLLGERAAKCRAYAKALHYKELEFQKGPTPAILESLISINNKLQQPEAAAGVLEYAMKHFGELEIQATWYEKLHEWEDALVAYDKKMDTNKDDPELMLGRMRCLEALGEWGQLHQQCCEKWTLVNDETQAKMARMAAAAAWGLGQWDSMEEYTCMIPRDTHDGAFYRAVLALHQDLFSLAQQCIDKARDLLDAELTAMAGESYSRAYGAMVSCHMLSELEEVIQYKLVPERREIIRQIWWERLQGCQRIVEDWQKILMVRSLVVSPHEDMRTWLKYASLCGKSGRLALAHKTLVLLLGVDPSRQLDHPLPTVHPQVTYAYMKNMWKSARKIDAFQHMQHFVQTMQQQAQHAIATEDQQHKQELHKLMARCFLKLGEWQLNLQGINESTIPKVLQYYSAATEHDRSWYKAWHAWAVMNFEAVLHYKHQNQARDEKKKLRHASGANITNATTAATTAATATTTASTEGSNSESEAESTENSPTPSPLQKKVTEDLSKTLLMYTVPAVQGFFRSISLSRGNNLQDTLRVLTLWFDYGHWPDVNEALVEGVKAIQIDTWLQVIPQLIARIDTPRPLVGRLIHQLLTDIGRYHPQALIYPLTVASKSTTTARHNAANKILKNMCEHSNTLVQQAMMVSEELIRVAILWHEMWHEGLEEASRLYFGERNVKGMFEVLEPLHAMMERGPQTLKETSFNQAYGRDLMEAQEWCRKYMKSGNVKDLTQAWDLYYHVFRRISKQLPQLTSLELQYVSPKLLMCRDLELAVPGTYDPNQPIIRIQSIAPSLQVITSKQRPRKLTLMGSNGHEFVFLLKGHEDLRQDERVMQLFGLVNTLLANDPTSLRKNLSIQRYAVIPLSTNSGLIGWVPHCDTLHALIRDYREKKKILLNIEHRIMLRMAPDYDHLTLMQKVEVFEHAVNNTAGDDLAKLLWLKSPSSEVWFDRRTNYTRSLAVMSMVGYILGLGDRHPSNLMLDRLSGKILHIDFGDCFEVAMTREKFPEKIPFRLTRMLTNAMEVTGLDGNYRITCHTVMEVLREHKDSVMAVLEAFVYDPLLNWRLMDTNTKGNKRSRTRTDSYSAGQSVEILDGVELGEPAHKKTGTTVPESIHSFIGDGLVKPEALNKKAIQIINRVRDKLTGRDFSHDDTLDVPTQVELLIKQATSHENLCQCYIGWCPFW
Method in brief: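 Inhibition of truncated mTOR (1362-2549, FLAG-tagged, purified from stably transfected HEK293 cells) is measured as reduced AlphaScreen signal from a phospho-T389-recognising antibody bound to the biotinylated peptide product. Kinase incubation lasts 2 hours at room temperature. Potency is given as IC50.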

mTOR [2] = target: T2, mTOR; experiment: mTOR Kinase Assay (Echo)
[3] = table of enzyme assay Test (a)(ii), read-out: Test (a)(ii) IC50

T1 sequence (P42336 whole entry, canonical isoform): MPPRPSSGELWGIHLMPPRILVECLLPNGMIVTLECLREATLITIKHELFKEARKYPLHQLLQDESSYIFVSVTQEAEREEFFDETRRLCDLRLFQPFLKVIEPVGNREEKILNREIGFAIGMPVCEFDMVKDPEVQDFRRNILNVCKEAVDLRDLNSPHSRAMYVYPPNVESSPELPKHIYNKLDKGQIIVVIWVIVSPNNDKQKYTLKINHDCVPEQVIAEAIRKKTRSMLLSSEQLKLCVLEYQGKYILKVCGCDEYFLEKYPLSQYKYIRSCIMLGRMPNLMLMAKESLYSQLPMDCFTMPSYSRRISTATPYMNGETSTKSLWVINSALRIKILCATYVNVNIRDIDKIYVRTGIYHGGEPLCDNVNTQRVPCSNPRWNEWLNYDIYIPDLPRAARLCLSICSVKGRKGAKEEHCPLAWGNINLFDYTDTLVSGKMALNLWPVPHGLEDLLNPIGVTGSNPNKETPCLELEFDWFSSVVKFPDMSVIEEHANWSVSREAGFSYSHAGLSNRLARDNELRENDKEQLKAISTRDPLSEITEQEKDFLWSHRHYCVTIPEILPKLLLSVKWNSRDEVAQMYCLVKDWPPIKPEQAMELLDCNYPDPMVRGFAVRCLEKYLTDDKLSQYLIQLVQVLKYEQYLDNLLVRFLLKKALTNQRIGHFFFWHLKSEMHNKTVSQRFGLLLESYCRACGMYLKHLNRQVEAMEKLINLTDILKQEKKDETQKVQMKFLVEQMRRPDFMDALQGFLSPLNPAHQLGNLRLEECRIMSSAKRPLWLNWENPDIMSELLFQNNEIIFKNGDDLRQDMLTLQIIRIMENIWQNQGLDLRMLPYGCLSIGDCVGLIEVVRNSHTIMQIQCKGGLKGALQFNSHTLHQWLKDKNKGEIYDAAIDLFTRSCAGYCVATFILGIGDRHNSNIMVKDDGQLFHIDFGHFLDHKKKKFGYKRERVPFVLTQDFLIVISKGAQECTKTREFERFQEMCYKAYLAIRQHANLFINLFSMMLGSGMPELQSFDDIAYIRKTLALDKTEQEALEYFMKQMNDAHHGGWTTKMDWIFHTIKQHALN
T1 sequence (P27986 whole entry partner, canonical isoform): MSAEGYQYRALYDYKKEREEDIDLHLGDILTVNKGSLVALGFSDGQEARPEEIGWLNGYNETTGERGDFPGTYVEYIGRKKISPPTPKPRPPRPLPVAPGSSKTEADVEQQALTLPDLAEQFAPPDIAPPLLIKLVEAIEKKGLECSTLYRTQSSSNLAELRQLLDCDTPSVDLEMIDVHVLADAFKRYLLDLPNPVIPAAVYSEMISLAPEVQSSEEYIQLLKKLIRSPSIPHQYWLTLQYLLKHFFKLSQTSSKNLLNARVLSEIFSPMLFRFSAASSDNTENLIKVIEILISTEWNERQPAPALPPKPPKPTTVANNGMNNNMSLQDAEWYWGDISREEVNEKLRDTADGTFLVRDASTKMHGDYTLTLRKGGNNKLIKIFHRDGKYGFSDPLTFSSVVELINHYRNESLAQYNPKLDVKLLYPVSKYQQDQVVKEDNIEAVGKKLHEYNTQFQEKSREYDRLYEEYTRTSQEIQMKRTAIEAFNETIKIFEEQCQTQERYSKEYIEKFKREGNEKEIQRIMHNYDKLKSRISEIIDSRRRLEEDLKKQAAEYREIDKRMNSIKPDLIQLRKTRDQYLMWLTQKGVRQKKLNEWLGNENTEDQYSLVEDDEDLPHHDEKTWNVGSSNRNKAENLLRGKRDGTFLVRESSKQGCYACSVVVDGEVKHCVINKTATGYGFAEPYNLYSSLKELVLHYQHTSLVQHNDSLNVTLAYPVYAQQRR

| Compound | IC50 (p110α Type Ia human PI3K) | IC50 (mTOR [1]; read-out: mTOR Kinase Assay (Echo)) | IC50 (mTOR [2]) | IC50 (mTOR [1]; [3]) |
| --- | --- | --- | --- | --- |
| C[C@H]1COCCN1c1cc(C2(S(=O)(=O)c3ccccc3)CC2)nc(-c2ccc(NC(=S)NCCC#N)cc2)n1 [Example 37y, 1-[4-[4-[1-(benzenesulfonyl)cyclopropyl]-6-[(3S)-3-methylmorpholin-4-yl]pyrimidin-2-yl]phenyl]-3-(2-cyanoethyl)thiourea] |  |  | 5.53 nM | 6.86 nM |
| C[C@H]1COCCN1c1cc(C2(S(=O)(=O)c3ncc[nH]3)CC2)nc(-c2ccc(NC(=O)NC3CC3)cc2)n1 [Example 40a, 3-cyclopropyl-1-[4-[4-[1-(1H-imidazol-2-ylsulfonyl)cyclopropyl]-6-[(3S)-3-methylmorpholin-4-yl]pyrimidin-2-yl]phenyl]urea] |  |  | 6.49 nM | 2.21 nM |
| CCNC(=O)Nc1ccc(-c2nc(N3CCOCC3)cc(C3(S(=O)(=O)c4nc(C)cs4)CC3)n2)cc1 [Example 42d, 1-ethyl-3-[4-[4-[1-[(4-methyl-1,3-thiazol-2-yl)sulfonyl]cyclopropyl]-6-morpholin-4-ylpyrimidin-2-yl]phenyl]urea] |  |  | 0.425 nM | 0.607 nM |
| CNC(=O)Nc1ccc(-c2nc(N3CCOC[C@@H]3C)cc(C3(S(=O)(=O)c4ccc(F)cn4)CC3)n2)cc1 [Example 48, 1-[4-[4-[1-(5-Fluoropyridin-2-yl)sulfonylcyclopropyl]-6-[(3S)-3-methylmorpholin-4-yl]pyrimidin-2-yl]phenyl]-3-methylurea] |  |  | 2.52 nM | 0.72 nM |

The next lines start with the values.

| IC50 (p110α Type Ia human PI3K) | IC50 (mTOR [1]; read-out: mTOR Kinase Assay (Echo)) | IC50 (mTOR [2]) | IC50 (mTOR [1]; [3]) | Compound |
| --- | --- | --- | --- | --- |
| 1040 nM | 0.169 nM |  |  | C[C@H]1COCCN1c1cc(C2(S(C)(=O)=O)CC2)nc(-c2ccc(NC(=O)Nc3cnn(C)c3)cc2)n1 [Example 2b, 1-[4-[4-[(3S)-3-methylmorpholin-4-yl]-6-(1-methylsulfonylcyclopropyl)pyrimidin-2-yl]phenyl]-3-(1-methylpyrazol-4-yl)urea] |
|  |  | 21.9 nM | 7.17 nM | CCNC(=O)Nc1ccc(-c2nc(N3CCOC[C@@H]3C)cc(C3(S(=O)(=O)CCNC(C)=O)CC3)n2)cc1 [Example 45, N-[2-[1-[2-[4-(Ethylcarbamoylamino)phenyl]-6-[(3S)-3-methylmorpholin-4-yl]pyrimidin-4-yl]cyclopropyl]sulfonylethyl]acetamide] |
|  |  | 1.03 nM | 1.16 nM | C[C@H]1COCCN1c1cc(C2(S(=O)(=O)c3ccc(F)cn3)CC2)nc(-c2ccc(NC(=O)NC3CC3)cc2)n1 [Example 48a, 3-cyclopropyl-1-[4-[4-[1-(5-fluoropyridin-2-yl)sulfonylcyclopropyl]-6-[(3S)-3-methylmorpholin-4-yl]pyrimidin-2-yl]phenyl]urea] |
|  |  | 10.7 nM | 5.88 nM | C[C@H]1COCCN1c1cc(C2(S(C)(=O)=O)CC2)nc(-c2ccc(NC(=O)Nc3cnn(C)c3)c(F)c2)n1 [Example 52d, 1-[2-fluoro-4-[4-[(3S)-3-methylmorpholin-4-yl]-6-(1-methylsulfonylcyclopropyl)pyrimidin-2-yl]phenyl]-3-(1-methylpyrazol-4-yl)urea] |

From patent US20090018134A1, “Compounds - 945” (AstraZeneca AB, priority 2007, published 2009)
